Measurements published in US11214594B2, “Antimicrobial peptide having synergistic antibacterial effect with antibiotics on multidrug resistant bacteria, and use thereof” (priority 2016, dated 2022).
In brackets after ≈: the same amount, converted by molar mass. Where two headings read alike, the source gives them in different places. Where a SMILES comes first, the peptide text is derived from it. [ ]: non-standard residue; d: D form.

Assays:
[1] = test system: MDREC 1229; format: cell-based, Escherichia coli
In short: (§1)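 Strains in MH medium at 2×10^6 CFU/ml were mixed with peptide diluted stepwise (2:1) from its MIC, then antibiotic dilutions in MH medium were added to give the antibiotic MIC. The reversed set-up, peptide titrated against fixed antibiotic, gave the peptide MIC.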

[2] = test system: E. coli; format: cell-based, Escherichia coli; conditions: E. coli
In short: as §1

[3] = test system: MDRAB 12035; experiment: microbe, parasite or virus in culture; format: cell-based, Acinetobacter baumannii
In short: (§2)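 Each strain is brought to 2×10^6 CFU in nutrient-sufficient Mueller-Hinton medium and dispensed into wells. Peptide solutions, stepwise diluted 2:1 in the same medium, are then added. The minimal concentration preventing growth gives the MIC.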

[4] = test system: A. baumannii; experiment: microbe, parasite or virus in culture; format: cell-based, Acinetobacter baumannii
In short: as §2

[5] = test system: P. aeruginosa; experiment: microbe, parasite or virus in culture; format: cell-based, Pseudomonas aeruginosa
In short: as §2

[6] = test system: MDRAB 12035; experiment: MIC of antibiotic during combined treatment with antimicrobial peptide; format: cell-based, Acinetobacter baumannii
Experimental: Specifically, the strains described in [Table 2] were prepared and diluted with an MH medium such that the number of bacteria was 2×10^6 colony-forming units (CFUs) per 1 ml, 100 μl of the diluted strains was each aliquoted into a 96-well microtiter plate, and then 50 μl of a peptide solution diluted with the MH medium from the MIC value (solution diluted stepwise at 2: 1) was added to each well. Thereafter, the MIC value of each mixed solution was determined by diluting the antibiotic solution with the MH medium, adding 50 μl of the diluted solution to each well, and performing an experiment even under a reversed condition.

[7] = test system: E. coli; experiment: as above; format: cell-based, Escherichia coli; conditions: for Antibiotic MIC, Erythromycin / Antibiotic MIC, Linezolid / Antibiotic MIC, Vancomycin: E. coli
In short: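 Checkerboard-type MIC of peptide–antibiotic mixtures in MH medium: the antibiotic was serially diluted in MH medium and added to wells, then the reversed arrangement was also tested.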

[8] = peptide treatment concentration 1 μg/ml
[9] = peptide treatment concentration 2 μg/ml
[10] = peptide treatment concentration 4 μg/ml
[11] = peptide treatment concentration 6 μg/ml
[12] = peptide treatment concentration 8 μg/ml
[13] = peptide treatment concentration 16 μg/ml
[14] = peptide treatment concentration 32 μg/ml
[15] = peptide treatment concentration 64 μg/ml

CC[C@H](C)[C@H](NC(=O)[C@H](CCCCN)NC(=O)[C@H](Cc1c[nH]c2ccccc12)NC(=O)[C@@H](N)CCCNC(=N)N)C(=O)N[C@@H](Cc1ccccc1)C(=O)N[C@@H](CCCCN)C(=O)N[C@@H](CCCCN)C(=O)N[C@H](C(=O)N[C@H](CCCCN)C(=O)N[C@@H](CCCCN)C(=O)N[C@@H](CC(C)C)C(=O)N[C@@H](CC(C)C)C(=O)N[C@@H](Cc1c[nH]cn1)C(=O)N[C@@H](CO)C(=O)N[C@@H](C)C(=O)N[C@@H](CCCCN)C(=O)N[C@@H](CCCCN)C(=O)N[C@@H](Cc1c[nH]c2ccccc12)C(N)=O)[C@@H](C)CC [PapMA-16, RWK IFK KIk KLL HSA KKW-NH2] (H-RWKIFKKI[dK]KLLHSAKKW-NH2; N-terminus assumed)
Peptide MIC during treatment with antibiotic ([1]; vancomycin 1024 μg/ml (Conc./MIC 1)): 1 µg/mL | Peptide MIC during treatment with antibiotic ([1]; vancomycin […] (Conc./MIC 1/4)): 4 µg/mL | Peptide MIC during treatment with antibiotic ([1]; vancomycin […] (Conc./MIC 1/8)): 8 µg/mL | Peptide MIC ([2]; with Erythromycin […] (Conc./MIC 1)): 0 µg/mL | Peptide MIC ([2]; with Linezolid […] (Conc./MIC 1)): 0 µg/mL | Peptide MIC ([2]; with Vancomycin 1024 μg/ml (Conc./MIC 1)): 0 µg/mL | Minimal inhibitory concentration MIC [3]: 32 µg/mL (≈ 13.7 µM) | Peptide MIC, peptide alone [3]: 32 µg/mL | Minimal inhibitory concentration MIC [4]: 32 µg/mL (≈ 13.7 µM) | Peptide MIC, peptide alone [4]: 32 µg/mL | Minimal inhibitory concentration MIC [5]: 64 µg/mL (≈ 27.4 µM) | Erythromycin MIC during combined treatment with peptide [6, 8]: 32 µg/mL | Linezolid MIC during combined treatment with peptide [6, 8]: >128 µg/mL | Vancomycin MIC during combined treatment with peptide [6, 8]: >128 µg/mL | Erythromycin MIC during combined treatment with peptide [6, 9]: 32 µg/mL | Linezolid MIC during combined treatment with peptide [6, 9]: >128 µg/mL | Vancomycin MIC during combined treatment with peptide [6, 9]: >128 µg/mL | Erythromycin MIC during combined treatment with peptide [6, 10]: 16 µg/mL | Linezolid MIC during combined treatment with peptide [6, 10]: 128 µg/mL | Vancomycin MIC during combined treatment with peptide [6, 10]: 64 µg/mL | Erythromycin MIC during combined treatment with peptide [6, 11]: 4 µg/mL | Linezolid MIC during combined treatment with peptide [6, 11]: 32 µg/mL | Vancomycin MIC during combined treatment with peptide [6, 11]: 32 µg/mL | Erythromycin MIC during combined treatment with peptide [6, 12]: 1 µg/mL | Linezolid MIC during combined treatment with peptide [6, 12]: 16 µg/mL | Vancomycin MIC during combined treatment with peptide [6, 12]: 16 µg/mL | Erythromycin MIC during combined treatment with peptide [6, 13]: 0.25 µg/mL | Linezolid MIC during combined treatment with peptide [6, 13]: 8 µg/mL | Vancomycin MIC during combined treatment with peptide [6, 13]: 8 µg/mL | Erythromycin MIC during combined treatment with peptide [6, 14]: 0 µg/mL | Linezolid MIC during combined treatment with peptide [6, 14]: 0 µg/mL | Vancomycin MIC during combined treatment with peptide [6, 14]: 0 µg/mL | Erythromycin MIC during combined treatment with peptide [6, 15]: 0 µg/mL | Linezolid MIC during combined treatment with peptide [6, 15]: 0 µg/mL | Vancomycin MIC during combined treatment with peptide [6, 15]: 0 µg/mL | Synergistic effect of antibacterial activity with existing antibiotics compared with PapMA-1 ([7]; E. coli and MDREC1229): higher level than the PapMA-1 peptide | Antibiotic MIC, Erythromycin ([7]; erythromycin combined with peptide at 1 μg/ml): 128 µg/mL | Antibiotic MIC, Erythromycin ([7]; erythromycin combined with peptide at 2 μg/ml): 32 µg/mL | Antibiotic MIC, Erythromycin ([7]; erythromycin combined with peptide at 4 μg/ml): 16 µg/mL | Antibiotic MIC, Erythromycin ([7]; erythromycin combined with peptide at 6 μg/ml): 2 µg/mL | Antibiotic MIC, Erythromycin ([7]; erythromycin combined with peptide at 8 μg/ml): 2 µg/mL | Antibiotic MIC, Erythromycin ([7]; erythromycin combined with peptide at 16 μg/ml): 0.25 µg/mL | Antibiotic MIC, Erythromycin ([7]; erythromycin combined with peptide at 32 μg/ml): 0.125 µg/mL | Antibiotic MIC, Erythromycin ([7]; erythromycin combined with peptide at 64 μg/ml): 0 µg/mL | Antibiotic MIC, Linezolid ([7]; linezolid combined with peptide at 1 μg/ml): >128 µg/mL | Antibiotic MIC, Linezolid ([7]; linezolid combined with peptide at 2 μg/ml): >128 µg/mL | Antibiotic MIC, Linezolid ([7]; linezolid combined with peptide at 4 μg/ml): 32 µg/mL | Antibiotic MIC, Linezolid ([7]; linezolid combined with peptide at 6 μg/ml): 16 µg/mL | Antibiotic MIC, Linezolid ([7]; linezolid combined with peptide at 8 μg/ml): 16 µg/mL | Antibiotic MIC, Linezolid ([7]; linezolid combined with peptide at 16 μg/ml): 8 µg/mL | Antibiotic MIC, Linezolid ([7]; linezolid combined with peptide at 32 μg/ml): 4 µg/mL | Antibiotic MIC, Linezolid ([7]; linezolid combined with peptide at 64 μg/ml): 0 µg/mL | Antibiotic MIC, Vancomycin ([7]; vancomycin combined with peptide at 1 μg/ml): >128 µg/mL | Antibiotic MIC, Vancomycin ([7]; vancomycin combined with peptide at 2 μg/ml): >128 µg/mL | Antibiotic MIC, Vancomycin ([7]; vancomycin combined with peptide at 4 μg/ml): >128 µg/mL | Antibiotic MIC, Vancomycin ([7]; vancomycin combined with peptide at 6 μg/ml): 32 µg/mL | Antibiotic MIC, Vancomycin ([7]; vancomycin combined with peptide at 8 μg/ml): 16 µg/mL | Antibiotic MIC, Vancomycin ([7]; vancomycin combined with peptide at 16 μg/ml): 8 µg/mL | Antibiotic MIC, Vancomycin ([7]; vancomycin combined with peptide at 32 μg/ml): 4 µg/mL | Antibiotic MIC, Vancomycin ([7]; vancomycin combined with peptide at 64 μg/ml): 0 µg/mL
